The text below walks through data of publication PMC5764481, “Synthesis, characterization and in vitro antitrypanosomal activities of new carboxamides bearing quinoline moiety” (PLoS ONE, 2018).

“And” between values parts separate entries of the source, which are not always exact repeats. Identical values can stand only once.

One data set concerns T. b. gambiense strain. Put plainly: In vitro antitrypanosomal activities (LILIT, Alamar Blue). The format is cell-based, Trypanosoma brucei gambiense. The note with it: Trypanosoma brucei, GAMBIENSE, 72 h. The procedure: In vitro antitrypanosomal activities against T. b. gambiense strain was described by Otoguro et al. In brief, T. b. gambiense strain was cultured in IMDM with various supplements and 10% heat-inactivated FBS at 37°C, under 5.0% CO2/95% air according to the method of Baltz et al. Ninety five […] of the trypanosomes suspension (2.0–2.5104 trypanosomes/mL for strain GUTat 3.1) was seeded in a 96-well microplate, and […] of a test compound solution (dissolved in 5.0% dimethylsulfoxide) was added followed by incubation for 72 h (long incubation-low inoculation test: LILIT). Ten […] of the fluorescent dye Alamar Blue was added to each well. After incubation for 3–6 h, the resulting solution was read at 528/20 nm excitation wavelength and 590/35 nm emission wavelength by a FLx800 fluorescent plate reader (Bio-Tek Instrument, Inc. Vermont, USA). Data were transferred into a spreadsheet program (Excel). The IC50 values were determined using fluorescent plate reader software (KC-4, Bio-Tek). Successive subcultures were done in 24-well tissue culture plates under the same conditions.
`Nc1nc(N)nc(Nc2ccc([As]3SCC(CO)S3)cc2)n1` (stereo not shown) [melarsoprol] came in with an IC50 of 0.005 µM.

Still in this data set, the particulars now being: Trypanosoma brucei; T. b. gambiense strain GUTat 3.1, 72 h incubation, Alamar Blue fluorescence; read-out: IC50.
Turning to `O=C(Nc1cnc2ccccc2c1)C(Cc1cc2ccccc2[nH]1)N(C(=O)c1ccccc1)S(=O)(=O)c1ccccc1` (stereo not shown) [Compound 11k, 2-[N-(benzenesulfonyl)-1-phenylformamido]-3-(1H-indol-2-yl)-N-(quinolin-3-yl)propanamide], the IC50 was determined as 0.109 ± 8e-05 µM.
As for `Cc1ccc(S(=O)(=O)N(C(=O)c2ccccc2)C(Cc2cc3ccccc3[nH]2)C(=O)Nc2cnc3ccccc3c2)cc1` (stereo not shown) [Compound 11c, 3-(1H-indol-2-yl)-2-[N-(4-methylbenzenesulfonyl)-1-phenylformamido]-N-(quinolin-3-yl)propanamide], the IC50 is 0.106 ± 3e-05 µM.

Staying with this data set, now noted: read-out: IC50.
As for “2-[N-(benzenesulfonyl)-1-phenylformamido]-N-(quinolin-3-yl)acetamide [Compound 11i]”, the IC50 is 0.14 ± 3e-05 µM.
Take “1-(Benzenesulfonyl)-4-hydroxy-N-(quinolin-3-yl)pyrrolidine-2-carboxamide [Compound 11o]”: the IC50 stood at 0.003 µM.
On the same count and under the same terms, then “2-[N-(4-nitrobenzenesulfonyl)-1-phenylformamido]-N-(quinolin-3-yl)acetamide [Compound 11q]”, with 0.128 ± 9e-05 µM.
In the case of “1-(Benzenesulfonyl)-N-(quinolin-3-yl)pyrrolidine-2-carboxamide [Compound 11p]”, the IC50 came to 0.004 µM.
For the molecule “3-Methyl-2-[N-(4-methylbenzenesulfonyl)-1-phenylformamido]-N-(quinolin-3-yl)butanamide [Compound 11f]”, the IC50 was 0.003 µM.
Still for that read-out and setting: the figure for “3-Methyl-2-[N-(4-nitrobenzenesulfonyl)-1-phenylformamido]-N-(quinolin-3-yl)butanamide [Compound 11v]” is 0.001 µM.
For “2-[N-(benzenesulfonyl)-1-phenylformamido]-3-methyl-N-(quinolin-3-yl)pentanamide [Compound 11m]”, the IC50 came to 0.125 ± 9e-05 µM.
The same measure, in the same setting: then “1-(4-Nitrobenzenesulfonyl)-N-(quinolin-3-yl)pyrrolidine-2-carboxamide [Compound 11x]”, with 0.003 µM.
Take “2-[N-(4-methylbenzenesulfonyl)-1-phenylformamido]-3-phenyl-N-(quinolin-3-yl)propanamide [Compound 11b]”: the IC50 is 0.114 ± 5e-05 µM.
As for “3-Methyl-2-[N-(4-nitrobenzenesulfonyl)-1-phenylformamido]-N-(quinolin-3-yl)pentanamide [Compound 11u]”, the IC50 is 0.114 ± 3e-05 µM.
In the case of “1-(4-Methylbenzenesulfonyl)-N-(quinolin-3-yl)pyrrolidine-2-carboxamide [Compound 11h]”, the IC50 is 0.005 µM and 0.006 µM.
Turning to “4-Methyl-2-[N-(4-methylbenzenesulfonyl)-1-phenylformamido]-N-(quinolin-3-yl)pentanamide [Compound 11d]”, the IC50 amounted to 0.121 ± 5e-05 µM.
With “2-[N-(4-methylbenzenesulfonyl)-1-phenylformamido]-N-(quinolin-3-yl)acetamide [Compound 11a]”, the IC50 was found to be 0.136 ± 3e-05 µM.
Same read-out and setting: then “4-Hydroxy-1-(4-methylbenzenesulfonyl)-N-(quinolin-3-yl)pyrrolidine-2-carboxamide [Compound 11g]”, with 0.002 µM; and “4-Methyl-2-[N-(4-nitrobenzenesulfonyl)-1-phenylformamido]-N-(quinolin-3-yl)pentanamide [Compound 11t]”, with 0.114 ± 9e-05 µM; and “2-[N-(benzenesulfonyl)-1-phenylformamido]-3-methyl-N-(quinolin-3-yl)butanamide [Compound 11n]”, with 0.001 µM.
In the case of “2-[N-(benzenesulfonyl)-1-phenylformamido]-3-phenyl-N-(quinolin-3-yl)propanamide [Compound 11j]”, the IC50 is 0.116 ± 4e-05 µM.
Regarding “2-[N-(4-nitrobenzenesulfonyl)-1-phenylformamido]-3-phenyl-N-(quinolin-3-yl)propanamide [Compound 11r]”, the IC50 is 0.108 ± 9e-05 µM.
Take “4-Hydroxy-1-(4-nitrobenzenesulfonyl)-N-(quinolin-3-yl)pyrrolidine-2-carboxamide [Compound 11w]”: the IC50 was determined as 0.002 µM.
The same measure, in the same setting: the figure for “2-[N-(benzenesulfonyl)-1-phenylformamido]-4-methyl-N-(quinolin-3-yl)pentanamide [Compound 11l]” is 0.125 ± 0.0001 µM.

Tested on in a further data set: not listed separately
Put plainly: Determination of LD50 in mice. The note with it: mouse, in vivo, ip; male mice, intraperitoneal, observed 72 h. The procedure: Male mice were divided into various groups and test compounds were administered in various doses intraperitoneally. […] All behavioral changes and deaths during the observation periods were recorded. The percentage of death at each dose level was then calculated, converted to probits and the LD50 (μM/kg) values were calculated. To observe the health status of the mice, they were monitored 4 times a day. […] For the purpose of ameliorating the suffering of the dying mice, CO2 euthanasia was applied. All the dead mice were disposed in bio-safety containers in accordance with local standard protocols. The mortality rate in each group was calculated according to the formula: Mortalityrate(%)=(thenumberofdeadmice/thenumberofmiceinthegroup)×100.
For the molecule `Nc1nc(N)nc(Nc2ccc([As]3SCC(CO)S3)cc2)n1` (stereo not shown) [melarsoprol], the 50% lethal dose (LD50) at 72 h worked out at 7.21 ± 0.28 µmol/kg.

Tested on in the next data set: not given
Assay: not given
Details: not given
As to `O=C(Nc1cnc2ccccc2c1)C(Cc1cc2ccccc2[nH]1)N(C(=O)c1ccccc1)S(=O)(=O)c1ccccc1` (stereo not shown) [Compound 11k, 2-[N-(benzenesulfonyl)-1-phenylformamido]-3-(1H-indol-2-yl)-N-(quinolin-3-yl)propanamide], the melting point was in the range of 73.5 to 73.8 °C.
Still for that read-out and setting: then `Cc1ccc(S(=O)(=O)N(C(=O)c2ccccc2)C(Cc2cc3ccccc3[nH]2)C(=O)Nc2cnc3ccccc3c2)cc1` (stereo not shown) [Compound 11c, 3-(1H-indol-2-yl)-2-[N-(4-methylbenzenesulfonyl)-1-phenylformamido]-N-(quinolin-3-yl)propanamide], with 88.1 to 88.8 °C.

For the next data set, the system named is T. b. rhodesiense.
Assay: not given
The note with it: cited from earlier work.
In the case of `NCCCC(N)(C(=O)O)C(F)F` (stereo not shown) [Eflornithine], the “effectiveness against T. b. rhodesiense” value is “ineffective”.

In the next data set the test system is people.
Assay: not given
The note with it: cited from earlier work.
Regarding `Nc1nc(N)nc(Nc2ccc([As]3SCC(CO)S3)cc2)n1` (stereo not shown) [melarsoprol], the “people who die from adverse effects related to treatment” value is 1–5%.
